Measurements: US7786045B2, “Aryl ether compounds and their preparation and use thereof” (Sinochem Corporation, priority 2005, dated 2010)

Tests used:
[1] = test system: cucumber downy mildew (Pseudoperonospora cubenis); test: Whole-plant fungicidal test, cucumber downy mildew; type: in vivo, Pseudoperonospora cubensis
[2] = test system: wheat powdery mildew (BLumeria graminis); test: Whole-plant fungicidal test, protectant activity, wheat powdery mildew; type: in vivo; details: for control against wheat powdery mildew: 500 mg/L
[3] = test system: green peach aphids (Myzus persicae); test: Insecticidal activity, green peach aphids, spraying; details: 200 mg/L; mortality after two days
Method: (§1) Determination of insecticidal and acaricidal activities of selected compounds were carried out by following procedure:
(§2) Technical samples were dissolved in mixed solvent (acetone:methanol=1:1), and diluted to required concentration with water containing 0.1% of tween 80.
(§3) The second instar larvae of armyworm (Leucania separata), diamond backmoth (Plutella xylostella) and culex mosquitoes (Culex pipiens pallens), green peach aphids (Myzus persicae) and mite (Tetranychus cinnabarinus) were used in biological test. The method was employed either spraying by airbrush or immersing (larvae of culex mosquitoes). A test solution (0.5 mL) was sprayed at the pressure of 10 psi (about 0.7 kg/cm^2). Percent mortality was determined after two days.

[4] = test system: cucumber grey mold (Botrytis cinerea); test: Whole-plant fungicidal test, cucumber grey mold; type: in vivo; details: 500 mg/L
[5] = test system: wheat powdery mildew; test: Whole-plant fungicidal test, curative activity, wheat powdery mildew; type: in vivo, Erysiphe graminis; details: for inhibition at 0.39 µg/mL / inhibition at 0.78 µg/mL / inhibition at 1.56 µg/mL / inhibition at 3.125 µg/mL / inhibition at 6.25 µg/mL / inhibition at 12.5 µg/mL: Triticum aestivum, 96 h, read-out: 4 day curative activity (%) against wheat powdery mildew
[6] = test system: corn southern leaf blight (Helminthosporium maydis); test: Whole-plant fungicidal test, corn southern leaf blight; type: in vivo; details: in words
Method: Protectant and curative activity of experimental compounds are tested with whole plants. […] For the protectant method, test solution was sprayed onto potted plant. Pathogen inoculation was carried out after 24 hours then plants were hold in growth chambers containing constant temperature and moisture for effect. When untreated plant was under desirable disease severity (after 1 week approximately), assessment were carried out by visual observation. Test plant inoculated with fungus for 4 days are sprayed with the solution of a compound and then cultured in green house for 3-4 days. The curative activity is assessed based on the control plant's index of disease.

[7] = test system: diamond backmoth (Plutella xylostella); test: Insecticidal activity, diamond backmoth, spraying; details: 200 mg/L; mortality after two days
Method: as §1, §2, §3

[8] = test system: rape sclerotinia stem rot (Sclerotinia sclerotiorum); test: Whole-plant fungicidal test, rape sclerotinia stem rot; type: in vivo; details: in words
[9] = test system: cucumber scab (Cladosporium cucumerinum); test: Whole-plant fungicidal test, cucumber scab; type: in vivo; details: in words
[10] = test system: tomato late blight (Phytophthora infestans); type: in vivo; details: in words
[11] = test system: cucumber powdery mildew (Sphaerotheca fuliginea); test: Whole-plant fungicidal test, cucumber powdery mildew; type: in vivo; details: in words
[12] = test system: cucumber anthracnose (Colletotrichum lagenarium); test: Whole-plant fungicidal test, cucumber anthracnose; type: in vivo
[13] = test system: rice sheath blight (Rhizoctonia solani); test: Whole-plant fungicidal test, protectant activity, rice sheath blight; type: in vivo
[14] = test system: apple alternaria rot (valsa mali); test: Whole-plant fungicidal test, apple alternaria rot; type: in vivo; details: in words
[15] = test system: rice blast (Pyricularia oryzae); type: in vivo; details: in words
[16] = test system: wheat head blight (Fusarium graminearum); type: in vivo; details: in words
[17] = test system: tomato cercospora leaf mold (Fulvia fulva); test: Whole-plant fungicidal test, tomato cercospora leaf mold; type: in vivo; details: in words

COC(=O)N(OC)c1ccccc1COc1cc(-c2ccccc2)nn1C [Compound 1]
control against cucumber downy mildew ([1]; 500 mg/L): 100%

COC(=O)N(OC)c1ccccc1COc1cc(-c2ccc(SC)cc2)nn1C [Compound 8]
control against cucumber downy mildew ([1]; 500 mg/L): 100%

COC(=O)N(OC)c1ccccc1COc1cc(-c2ccc(Cl)cc2Cl)nn1C [Compound 10]
control against wheat powdery mildew [2]: 100% | control against cucumber downy mildew ([1]; 500 mg/L): 100%

COC(=O)N(OC)c1ccccc1COc1cc(-c2ccc(Cl)cc2)nn1C(C)C [Compound 11]
control against cucumber downy mildew ([1]; 500 mg/L): 90%

COC(=O)N(OC)c1ccccc1COc1cc(-c2ccc(Br)cc2)nn1C [Compound 15]
control of green peach aphids [3]: 90% | control against cucumber downy mildew ([1]; 25 mg/L): 100% | control against cucumber downy mildew ([1]; 500 mg/L): 100%

COC(=O)N(OC)c1ccccc1COc1cc(-c2ccc(C)cc2)nn1C [Compound 16]
control against wheat powdery mildew [2]: 100%

COC(=O)N(OC)c1ccccc1COc1cc(-c2ccccc2Cl)nn1C [Compound 20]
control against wheat powdery mildew [2]: 100% | control against cucumber downy mildew ([1]; 25 mg/L): 100% | control against cucumber downy mildew ([1]; 500 mg/L): 100%

COC(=O)N(OC)c1ccccc1COc1cc(-c2ccc(Cl)nc2)nn1C [Compound 21]
control against cucumber grey mold [4]: 100% | control against wheat powdery mildew [2]: 100%

COC(=O)N(OC)c1ccccc1COc1c(C)c(-c2ccccc2)nn1C [Compound 63]
4 day curative activity (%) against wheat powdery mildew ([5]; 0.39 mg/L): 50% | 4 day curative activity (%) against wheat powdery mildew ([5]; 0.78 mg/L): 80% | 4 day curative activity (%) against wheat powdery mildew ([5]; 1.56 mg/L): 100% | 4 day curative activity (%) against wheat powdery mildew ([5]; 3.125 mg/L): 100% | 4 day curative activity (%) against wheat powdery mildew ([5]; 6.25 mg/L): 100% | 4 day curative activity (%) against wheat powdery mildew ([5]; 12.5 mg/L): 100% | activity against corn southern leaf blight [6]: moderate activity | control of diamond backmoth [7]: 100% | activity on rape sclerotinia stem rot [8]: good activity | activity on cucumber scab [9]: good activity | activity against tomato late blight [10]: excellent activity | activity against cucumber powdery mildew [11]: excellent activity | control against cucumber anthracnose ([12]; 1.56 mg/L): 100% | control against cucumber anthracnose ([12]; 100 mg/L): 100% | activity against cucumber anthracnose ([12]; in words): excellent activity | 1 day protection activity (%) against rice sheath blight ([13]; 1.5625 mg/L): 55% | 1 day protection activity (%) against rice sheath blight ([13]; 3.125 mg/L): 60% | 1 day protection activity (%) against rice sheath blight ([13]; 6.25 mg/L): 65% | 1 day protection activity (%) against rice sheath blight ([13]; 12.5 mg/L): 75% | 1 day protection activity (%) against rice sheath blight ([13]; 25 mg/L): 80% | 1 day protection activity (%) against rice sheath blight ([13]; 50 mg/L): 100% | 1 day protection activity (%) against rice sheath blight ([13]; 100 mg/L): 100% | activity against rice sheath blight ([13]; in words): excellent activity | activity on apple alternaria rot [14]: good activity | activity against rice blast [15]: excellent activity | activity against wheat head blight [16]: moderate activity | 1 day protection activity (%) against wheat powdery mildew ([2]; 0.19 mg/L): 55% | 1 day protection activity (%) against wheat powdery mildew ([2]; 0.39 mg/L): 75% | 1 day protection activity (%) against wheat powdery mildew ([2]; 0.78 mg/L): 95% | 1 day protection activity (%) against wheat powdery mildew ([2]; 1.56 mg/L): 100% | 1 day protection activity (%) against wheat powdery mildew ([2]; 3.125 mg/L): 100% | 1 day protection activity (%) against wheat powdery mildew ([2]; 6.25 mg/L): 100% | 1 day protection activity (%) against wheat powdery mildew ([2]; 12.5 mg/L): 100% | 1 day protection activity (%) against wheat powdery mildew ([2]; 25 mg/L): 100% | control against wheat powdery mildew [2]: 100% | activity against wheat powdery mildew ([2]; in words): excellent activity | control against cucumber downy mildew ([1]; 25 mg/L): 100% | control against cucumber downy mildew ([1]; 500 mg/L): 100% | activity against cucumber downy mildew ([1]; in words): excellent activity | activity against tomato cercospora leaf mold [17]: moderate activity

COC(=O)N(OC)c1ccccc1COc1c(C)c(-c2ccc(C)cc2)nn1C [Compound 78]
control against wheat powdery mildew [2]: 100% | control against cucumber downy mildew ([1]; 25 mg/L): 100% | control against cucumber downy mildew ([1]; 500 mg/L): 100%

COC=C(C(=O)OC)c1ccccc1-c1cc(Oc2cc(-c3ccc(Cl)cc3)nn2C(C)C)ncn1 [Compound 194]
control against cucumber downy mildew ([1]; 500 mg/L): 100%

COC=C(C(=O)OC)c1ccccc1COc1cc(-c2cccs2)nn1C [Compound 367]
control against cucumber downy mildew ([1]; 500 mg/L): 100%

CON=C(C(=O)OC)c1ccccc1COc1cc(-c2cccs2)nn1C [Compound 391]
control against cucumber downy mildew ([1]; 500 mg/L): 90%

CNC(=O)C(=NOC)c1ccccc1COc1cc(-c2cccs2)nn1C [Compound 415]
control against cucumber downy mildew ([1]; 500 mg/L): 100%

CO/N=C(/C(=O)OC)c1ccccc1COc1ccccc1C [Kresoxim methyl, reference compound]
inhibition at 0.39 µg/mL ([5]; 0.39 mg/L): 0% | inhibition at 0.78 µg/mL ([5]; 0.78 mg/L): 0% | inhibition at 1.56 µg/mL ([5]; 1.56 mg/L): 10% | inhibition at 3.125 µg/mL ([5]; 3.125 mg/L): 15% | inhibition at 6.25 µg/mL ([5]; 6.25 mg/L): 20% | inhibition at 12.5 µg/mL ([5]; 12.5 mg/L): 100% | inhibition at 0.39 µg/mL ([2]; Blumeria graminis, 24 h, 0.39 mg/L, read-out: 1 day protection activity (%) against wheat powdery mildew): 0% | inhibition at 0.78 µg/mL ([2]; Blumeria graminis, 24 h, 0.78 mg/L, read-out: 1 day protection activity (%) against wheat powdery mildew): 15% | inhibition at 1.56 µg/mL ([2]; Blumeria graminis, 24 h, 1.56 mg/L, read-out: 1 day protection activity (%) against wheat powdery mildew): 40% | inhibition at 3.125 µg/mL ([2]; Blumeria graminis, 24 h, 3.125 mg/L, read-out: 1 day protection activity (%) against wheat powdery mildew): 70% | inhibition at 6.25 µg/mL ([2]; Blumeria graminis, 24 h, 6.25 mg/L, read-out: 1 day protection activity (%) against wheat powdery mildew): 98% | inhibition at 12.5 µg/mL ([2]; Blumeria graminis, 24 h, 12.5 mg/L, read-out: 1 day protection activity (%) against wheat powdery mildew): 100% | inhibition at 25 µg/mL ([2]; Blumeria graminis, 24 h, 25 mg/L, read-out: 1 day protection activity (%) against wheat powdery mildew): 100%

COC(=O)N(OC)c1ccccc1COc1ccn(-c2ccc(Cl)cc2)n1 [pyraclostrobin]
inhibition at 0.39 µg/mL ([5]; 0.39 mg/L): 0% | inhibition at 0.78 µg/mL ([5]; 0.78 mg/L): 25% | inhibition at 1.56 µg/mL ([5]; 1.56 mg/L): 60% | inhibition at 3.125 µg/mL ([5]; 3.125 mg/L): 85% | inhibition at 6.25 µg/mL ([5]; 6.25 mg/L): 100% | inhibition at 12.5 µg/mL ([5]; 12.5 mg/L): 100%

CC(C)(C)C(O)(CCc1ccc(Cl)cc1)Cn1cncn1 (stereo not drawn) [tebuconazole]
inhibition at 0.39 µg/mL ([5]; 0.39 mg/L): 0% | inhibition at 0.78 µg/mL ([5]; 0.78 mg/L): 0% | inhibition at 1.56 µg/mL ([5]; 1.56 mg/L): 15% | inhibition at 3.125 µg/mL ([5]; 3.125 mg/L): 45% | inhibition at 6.25 µg/mL ([5]; 6.25 mg/L): 70% | inhibition at 12.5 µg/mL ([5]; 12.5 mg/L): 85%

COC(=O)NC(=S)Nc1ccccc1NC(=S)NC(=O)OC [triophanate-methyl, reference compound]
1 day protection activity (%) against rice sheath blight ([13]; 1.5625 mg/L): 0% | 1 day protection activity (%) against rice sheath blight ([13]; 3.125 mg/L): 0% | 1 day protection activity (%) against rice sheath blight ([13]; 6.25 mg/L): 0% | 1 day protection activity (%) against rice sheath blight ([13]; 12.5 mg/L): 0% | 1 day protection activity (%) against rice sheath blight ([13]; 25 mg/L): 20% | 1 day protection activity (%) against rice sheath blight ([13]; 50 mg/L): 55% | 1 day protection activity (%) against rice sheath blight ([13]; 100 mg/L): 75%
